Tests used:
[1] = test system: Aβ25-35-treated murine cerebral cortical neural cells; test: Quantitative experiment for dendritic elongation; type: cell-based, ddY mouse; conditions: compared with Vehicle
Experimental: (§1) Murine cerebral cortical neural cells were prepared by the following method. Fetuses extracted from a 14-day […] ddY mouse (Japan SLC, Shizuoka) were washed with PBS, then decapitated, and added in a medium made for primary culture [12% equine serum (Life Technologies), 2 mM L-glutamic acid, and 0.6% glucose dissolved in Neurobasal media (Life Technologies, Carlsbad, Calif., USA)]. Only cerebral cortex was isolated in the medium under a stereomicroscope (SZ-61, Olympus, Tokyo).
(§2) Cerebral cortex was cut into about 1 mm-sized cubes in a safety cabinet. Centrifugation was performed at 700 rpm for 3 minutes, then the supernatant was removed, and to the precipitate was added 2 mL of 0.05% trypsin-0.53 mM EDTA solution (Life Technologies) to make a suspension. The suspension was incubated at 37° C. for 15 minutes with stirring for every 5 minutes, loaded with 4 mL of the medium, centrifuged at 700 rpm for 3 minutes to remove the supernatant, and to the precipitate was added 2 mL of 600 U/mL DNase I (Wako Pure Chemical Co., Ltd)-0.03% trypsin inhibitor (Life Technologies)-PBS solution to make a suspension.
(§3) The suspension was further incubated at 37° C. for 15 minutes with stirring for every 5 minutes, loaded with 4 mL of the medium, and centrifuged at 700 rpm for 3 minutes. The sediment was loaded with 4 mL of a calcium-magnesium-free Hank's balanced salt solution (HBSS), and centrifuged at 700 rpm for 3 minutes. 4 mL of the medium was added to the sediment.
The sediment loaded with the medium was gently suspended with a Pasteur pipette in which its tip had been heated and smoothed, until the cell clumps were invisible, and then filtrated with a 70 μm nylon cell strainer (Falcon, N.J., USA). Cell culture was performed in an 8-well chamber slide (falcon). Cells were seeded into the one coated the day before [in which Poly-D-Lysine (PDL, Wako Pure Chemical Co., Ltd) diluted with PBS to 0.005 mg/mL was plated and incubated at 37° C.; on the day of culture, it was washed twice with sterilized purified water.] Culture was started at 37° C. and 10% CO2 under saturated vapor.
In quantitative experiment for dendritic elongation, the medium was all changed with a fresh medium containing B-27 supplement (Invitrogen) instead of equine serum 5 hours and 3 days after start of culture. At medium change after 3 days, the pre-aggregated partial sequence fragment of amyloid beta (Aβ25-35) was added up to 10 μM. After another 3 days, each peptide or solvent was added when the medium was all changed into a fresh one, and after another 4 days, immunostaining was performed.
Immunostaining for quantifying dendritic elongation was performed as follows. After the end of the drug treatment term, the medium was removed and the cells were washed with PBS, added with 4% paraformaldehyde (PFA, Wako Pure Chemical Co., Ltd)-PBS solution, left standing at room temperature for an hour, and fixed. Wash with 0.3% triton X-100 (Wako Pure Chemical Co., Ltd)-PBS solution for 5 minutes was performed twice. Then, a primary antibody solution (0.3% triton X-100-PBS solution, 1% normal goat serum [Wako Pure Chemical Co., Ltd], a primary antibody) was added, and reacted at 4° C. overnight.
For the primary antibody, rabbit anti-MAP2 polyclonal antibody (1:2000) (Abcam, Cambridge, UK) was used. The next day, the primary antibody solution was removed; wash was performed twice with 0.3% triton X-100-PBS solution for 5 minutes; and then a secondary antibody solution [0.3% triton X-100-PBS solution, Alexa Fluor 488-labeled goat anti-rabbit IgG antibody (1:200) (Molecular Probes, Eugene, Oreg., USA)] was added, and reacted under shading at room temperature for 2 hours. After the reaction, the secondary antibody solution was removed, and the cells were washed twice with PBS for 5 minutes, stained for nuclei with DAPI staining, and then embedded with Aqua-Poly/Mount (Polysciences, Warrington, USA). […]

[2] = test system: Aβ25-35-treated murine cerebral cortical neural cells; test: Quantitative experiment for presynaptic density; type: cell-based, ddY mouse; conditions: 21-day culture
Experimental: as §1, §2, §3
The sediment loaded with the medium was gently suspended with a Pasteur pipette in which its tip had been heated and smoothed, until the cell clumps were invisible, and then filtrated with a 70 μm nylon cell strainer (Falcon, N.J., USA). Cell culture was performed in an 8-well chamber slide (falcon). […]
Immunostaining for quantifying presynaptic density was performed as follows. […]

5XFAD mice = test: Object recognition memory test; type: in vivo, mouse; conditions: continuous intraventricular infusion for 28 days keeping 10 nM in cerebrospinal fluid, 24 hours interval between training and testing, P<0.05
Excerpt: Alzheimer's disease model mice: Transgenic mice that are animal models for Alzheimer's disease (5XFAD) were obtained from the Jackson Laboratories (Bar Harbor, Me., USA). 5XFAD mice overexpress human APP695 cDNA having mutations of Swedish (K670N and M671L), Florida (I716V), and London (V717I), and human PS1 cDNA (mutations at M146L and L286V) under transcriptional control of the neuron-specific murine Thy-1 promoter (Oakley, H. et al., J Neurosci, 26, 10129-10140, 2006). Those were maintained by crossing B6/SJL F1 breeders with hemizygous transgenic mice. […]
GPPGPAG (SEQ ID NO: 1) was dissolved in an artificial cerebrospinal fluid, and an osmotic minipump model 1004 (ALZET Osmotic Pumps, Cupertino, USA) containing the solution inserted and fixed into the right lateral ventricle of each 5XFAD mouse to inject the solution into the lateral ventricle continuously for 28 days. […] Specifically, from a peptide flow of 0.11 μL/h from the pump and a production of cerebrospinal fluid of 18 μL/h in the mouse, the concentration of the peptide solution was calculated such that the peptide concentration in the murine cerebrospinal fluid would be kept at 10 nM (which was an effective concentration in the cell experiments), and the solution prepared thereby was loaded into the pump. […]

[3] = posttreatment with 1 nM peptide for 4 days after 10 μM Aβ25-35 for 3 days
[4] = posttreatment with 10 nM peptide for 4 days after 10 μM Aβ25-35 for 3 days

| Substance | density of dendrites (length of MAP2-positive dendrites per neural cell) [1, 3] | density of dendrites (length of MAP2-positive dendrites per neural cell) [1, 4] | presynaptic density on dendrites (synaptophysin-positive area per dendrite length) ([2]; posttreatment with 1 nM, 10 nM and 100 nM, 10 μM Aβ25-35 for 3 days, peptide for 4 days) | presynaptic density on dendrites (synaptophysin-positive area per dendrite length) ([2]; posttreatment with 10 nM, 10 μM Aβ25-35, compared with Vehicle) | presynaptic density on dendrites (synaptophysin-positive area per dendrite length) ([2]; posttreatment with 100 nM, 10 μM Aβ25-35, compared with Vehicle) | exploratory preferential index at the testing stage relative to the training stage (5XFAD mice) |
| --- | --- | --- | --- | --- | --- | --- |
| GPPGPA: comparison peptide of amino acid sequence GPPGPA (SEQ ID NO: 4) (P4) | neither treatment with 1 nM nor 10 nM was any effect observed | neither treatment with 1 nM nor 10 nM was any effect observed | – | – | – | – |
| GPPGPP: comparison peptide of amino acid sequence GPPGPP (SEQ ID NO: 3) (P3) | neither treatment with 1 nM nor 10 nM was any effect observed | neither treatment with 1 nM nor 10 nM was any effect observed | – | – | – | – |
| GPPGPPG (P2) | neither treatment with 1 nM nor 10 nM was any effect observed | neither treatment with 1 nM nor 10 nM was any effect observed | – | – | – | – |
| PPGPAG: comparison peptide of amino acid sequence PPGPAG (SEQ ID NO: 5) (P5) | neither treatment with 1 nM nor 10 nM was any effect observed | neither treatment with 1 nM nor 10 nM was any effect observed | – | – | – | – |
| GPPGPAG (P1) | – | significant increase in density of dendrites | concentration-dependent increase in presynaptic density | significant increase | significant increase | significantly increased |

Reference: US10660935B2, “Methods for ameliorating memory impairment in a memory disorder caused by neuronal cell death or Abeta aggregation using a peptide” (JAPAN BIO PRODUCTS Co., Ltd., priority 2017, dated 2020)
